# According to paper PMC12373846, “Hemoglobin as a pseudoperoxidase and drug target for oxidative stress-related diseases” (Signal Transduction and Targeted Therapy, 2025):
# Values joined by “and” are separate entries in the source; they are usually repeats but may differ in a detail not shown here. Equal values may be shown once. Read-outs that look alike come from different tables or passages of the source.
# Tests used:
# C57BL/6J mice = assay: PhenoMaster respiration and metabolic analysis; type: in vivo, mouse; design: energy expenditure (Fig. S8b) / total food consumption (Fig. S8c) / total drink consumption (Fig. S8d) / oxygen consumption (stats entry 2j): unit not given here
# Method: For respiration and metabolic analysis, PhenoMaster (TSE Systems, Germany) was employed. All C57BL/6J mice aged 8–10 weeks underwent initial chamber habituation and gas calibration on day 0. Starting on day 3, the mice were administered KDS12025 dissolved in water at dosages of 0.1, 1, and 10 mg/kg/day (ad libitum drinking water). Respiratory and metabolic measurements, including oxygen consumption, carbon dioxide production, and the respiratory exchange ratio (RER, calculated as VCO2/VO2), as well as food and drink intake and energy expenditure, were conducted from day 4. The recording ends on day 8 with data collection.
# [1] = target: T1, 5-HT2B (h) (agonist radioligand) (Homo sapiens, UniProt P41595); assay: SafetyScreen87 panel; settings: 1.0E-06 M; mean; read-out: % Inhibition of Control Specific Binding (1st, 2nd, Mean)
# T1 construct: purchased DiscoverX KINOMEscan scanEDGE; Eurofins Cerep SafetyScreen87
# Method: (§1) The possibility of KDS12025 on kinase off-target, the KINOMEscan panel of scanEDGE assay was conducted in DiscoverX (CA, USA) using a site-directed competition binding with the test compounds. The assay results are given in Supplementary Table 4 and experimental information is available on the DiscoverX web page (www.discoverx.com). Moreover, the Delta SafetyScreen87 panel assay was conducted in Eurofins Discovery (Cerep, France). The assay results are given in Supplementary Table 5 and experimental information is available on the DiscoverX web page (https://www.eurofinsdiscoveryservices.com).
# [2] = target: T2, 5-HT2C (h) (antagonist radioligand) (Homo sapiens, UniProt P28335); assay: SafetyScreen87 panel; settings: 1.0E-06 M; mean; read-out: % Inhibition of Control Specific Binding (1st, 2nd, Mean)
# T2 construct: purchased DiscoverX KINOMEscan scanEDGE; Eurofins Cerep SafetyScreen87
# Method: as §1
# [3] = target: T3, 5-HT3 (h) (antagonist radioligand) (Homo sapiens, UniProt P46098); assay: SafetyScreen87 panel; settings: 1.0E-06 M; read-out: % Inhibition of Control Specific Binding (1st, 2nd, Mean)
# T3 construct: purchased DiscoverX KINOMEscan scanEDGE; Eurofins Cerep SafetyScreen87
# Method: as §1
# [4] = target: T4, A1 (h) (antagonist radioligand) (Homo sapiens, UniProt P30542); assay: SafetyScreen87 panel; settings: 1.0E-06 M, read-out: % Inhibition of Control Specific Binding (1st, 2nd, Mean)
# T4 construct: purchased DiscoverX KINOMEscan scanEDGE; Eurofins Cerep SafetyScreen87
# Method: as §1
# [5] = test system: BZD (central) (agonist radioligand); assay: SafetyScreen87 panel; settings: 1.0E-06 M, read-out: % Inhibition of Control Specific Binding (1st, 2nd, Mean)
# Method: as §1
# [6] = target: T5, CB2 (h) (agonist radioligand) (Homo sapiens, UniProt P34972); assay: SafetyScreen87 panel; settings: 1.0E-06 M, read-out: % Inhibition of Control Specific Binding (1st, 2nd, Mean)
# T5 construct: purchased DiscoverX KINOMEscan scanEDGE; Eurofins Cerep SafetyScreen87
# Method: as §1
# [7] = test system: Ca2+ channel (L, verapamil site) (phenylalkylamine) (antagonist radioligand); assay: SafetyScreen87 panel; settings: 1.0E-06 M, read-out: % Inhibition of Control Specific Binding (1st, 2nd, Mean)
# Method: as §1
# [8] = target: T6, D2L (h) (antagonist radioligand) (Homo sapiens, UniProt P14416); assay: SafetyScreen87 panel; settings: 1.0E-06 M, read-out: % Inhibition of Control Specific Binding (1st, 2nd, Mean)
# T6 construct: purchased DiscoverX KINOMEscan scanEDGE; Eurofins Cerep SafetyScreen87
# Method: as §1
# [9] = test system: KV channel (antagonist radioligand); assay: SafetyScreen87 panel; settings: 1.0E-06 M, read-out: % Inhibition of Control Specific Binding (1st, 2nd, Mean)
# Method: as §1
# [10] = target: T7, M1 (h) (antagonist radioligand) (Homo sapiens, UniProt P11229); assay: SafetyScreen87 panel; settings: 1.0E-06 M; mean; read-out: % Inhibition of Control Specific Binding (1st, 2nd, Mean)
# T7 construct: purchased DiscoverX KINOMEscan scanEDGE; Eurofins Cerep SafetyScreen87
# Method: as §1
# [11] = target: T8, M3 (h) (antagonist radioligand) (Homo sapiens, UniProt P20309); assay: SafetyScreen87 panel; settings: 1.0E-06 M; mean; read-out: % Inhibition of Control Specific Binding (1st, 2nd, Mean)
# T8 construct: purchased DiscoverX KINOMEscan scanEDGE; Eurofins Cerep SafetyScreen87
# Method: as §1
# [12] = target: T9, PPARgamma (h) (agonist radioligand) (Homo sapiens, UniProt P37231); assay: SafetyScreen87 panel; settings: read-out: % Inhibition of Control Specific Binding (1st, 2nd, Mean); 1.0E-06 M
# T9 construct: purchased DiscoverX KINOMEscan scanEDGE; Eurofins Cerep SafetyScreen87
# Method: as §1
# [13] = target: T10, RARalpha (h) (agonist radioligand) (Homo sapiens, UniProt P10276); assay: SafetyScreen87 panel; settings: 1.0E-06 M; read-out: % Inhibition of Control Specific Binding (1st, 2nd, Mean)
# T10 construct: purchased DiscoverX KINOMEscan scanEDGE; Eurofins Cerep SafetyScreen87
# Method: as §1
# [14] = target: T11, alpha 2A (h) (antagonist radioligand) (Homo sapiens, UniProt P08913); assay: SafetyScreen87 panel; settings: 1.0E-06 M, read-out: % Inhibition of Control Specific Binding (1st, 2nd, Mean)
# T11 construct: purchased DiscoverX KINOMEscan scanEDGE; Eurofins Cerep SafetyScreen87
# Method: as §1
# [15] = target: T12, dopamine transporter (h) (antagonist radioligand) (Homo sapiens, UniProt Q01959); assay: SafetyScreen87 panel; settings: 1.0E-06 M, read-out: % Inhibition of Control Specific Binding (1st, 2nd, Mean)
# T12 construct: Eurofins Discovery (Cerep, France) SafetyScreen87 panel
# Method: as §1
# [16] = test system: glycine (strychnine-insensitive) (antagonist radioligand); assay: SafetyScreen87 panel; settings: 1.0E-06 M; read-out: % Inhibition of Control Specific Binding (1st, 2nd, Mean)
# Method: as §1
# hERG potassium channel = target: T13, hERG potassium channel (Homo sapiens, UniProt Q12809); assay: SafetyScreen87 panel; settings: human, probe [3H] Dofetilide, 1.0E-06 M; read-out: % Inhibition of Control Specific Binding (1st, 2nd, Mean)
# T13 construct: Eurofins Discovery (Cerep, France) SafetyScreen87 panel
# Method: as §1
# T12 sequence (Q01959 whole entry): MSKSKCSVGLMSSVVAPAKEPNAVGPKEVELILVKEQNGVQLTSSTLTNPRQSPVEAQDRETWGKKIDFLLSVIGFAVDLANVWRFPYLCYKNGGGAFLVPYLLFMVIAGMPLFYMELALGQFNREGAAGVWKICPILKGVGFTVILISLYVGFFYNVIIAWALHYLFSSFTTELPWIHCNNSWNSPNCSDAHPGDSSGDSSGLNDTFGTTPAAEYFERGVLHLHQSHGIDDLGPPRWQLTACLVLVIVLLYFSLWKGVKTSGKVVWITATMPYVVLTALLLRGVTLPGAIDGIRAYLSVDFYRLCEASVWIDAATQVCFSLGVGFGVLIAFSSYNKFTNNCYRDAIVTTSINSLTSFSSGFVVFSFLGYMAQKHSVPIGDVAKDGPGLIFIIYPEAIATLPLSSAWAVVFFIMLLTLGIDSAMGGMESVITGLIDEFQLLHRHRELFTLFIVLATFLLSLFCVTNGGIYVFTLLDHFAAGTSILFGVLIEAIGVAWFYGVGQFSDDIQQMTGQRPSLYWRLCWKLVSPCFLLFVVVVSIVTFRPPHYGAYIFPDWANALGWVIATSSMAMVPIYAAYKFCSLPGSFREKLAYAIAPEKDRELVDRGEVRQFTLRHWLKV
# T10 sequence (P10276 whole entry): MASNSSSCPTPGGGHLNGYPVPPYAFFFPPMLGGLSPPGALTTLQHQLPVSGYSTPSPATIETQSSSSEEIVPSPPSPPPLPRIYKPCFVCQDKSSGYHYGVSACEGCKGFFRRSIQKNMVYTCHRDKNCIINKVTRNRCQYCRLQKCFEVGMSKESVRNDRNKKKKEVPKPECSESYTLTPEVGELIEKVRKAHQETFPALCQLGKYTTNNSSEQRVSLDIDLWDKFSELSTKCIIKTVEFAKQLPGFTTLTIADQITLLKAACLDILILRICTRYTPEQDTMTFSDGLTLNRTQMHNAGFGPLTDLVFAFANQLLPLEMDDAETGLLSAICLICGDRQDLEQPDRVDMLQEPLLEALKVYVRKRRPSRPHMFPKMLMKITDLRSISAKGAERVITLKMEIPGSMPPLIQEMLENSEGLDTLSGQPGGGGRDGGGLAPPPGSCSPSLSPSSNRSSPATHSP
# T11 sequence (P08913 whole entry): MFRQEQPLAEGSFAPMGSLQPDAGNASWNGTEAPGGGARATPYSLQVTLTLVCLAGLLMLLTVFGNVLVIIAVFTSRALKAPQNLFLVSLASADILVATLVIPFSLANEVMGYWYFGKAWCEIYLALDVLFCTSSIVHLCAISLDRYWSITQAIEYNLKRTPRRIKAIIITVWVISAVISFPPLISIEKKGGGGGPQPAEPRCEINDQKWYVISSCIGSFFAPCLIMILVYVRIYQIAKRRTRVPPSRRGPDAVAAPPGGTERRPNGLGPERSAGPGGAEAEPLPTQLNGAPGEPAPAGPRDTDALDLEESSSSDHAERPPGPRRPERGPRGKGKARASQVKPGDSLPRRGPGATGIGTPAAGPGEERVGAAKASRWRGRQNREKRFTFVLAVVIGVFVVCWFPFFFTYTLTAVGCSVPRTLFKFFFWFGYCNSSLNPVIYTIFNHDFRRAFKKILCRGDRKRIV
# T4 sequence (P30542 whole entry): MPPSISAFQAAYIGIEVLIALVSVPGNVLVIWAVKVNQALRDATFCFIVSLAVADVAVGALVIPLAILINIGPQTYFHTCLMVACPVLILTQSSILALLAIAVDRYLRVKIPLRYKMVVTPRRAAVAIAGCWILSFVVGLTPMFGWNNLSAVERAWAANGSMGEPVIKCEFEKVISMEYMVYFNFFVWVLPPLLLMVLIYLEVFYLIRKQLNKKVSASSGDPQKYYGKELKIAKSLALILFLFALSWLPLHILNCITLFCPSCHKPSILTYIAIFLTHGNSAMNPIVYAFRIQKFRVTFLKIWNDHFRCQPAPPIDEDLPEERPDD
# T5 sequence (P34972 whole entry): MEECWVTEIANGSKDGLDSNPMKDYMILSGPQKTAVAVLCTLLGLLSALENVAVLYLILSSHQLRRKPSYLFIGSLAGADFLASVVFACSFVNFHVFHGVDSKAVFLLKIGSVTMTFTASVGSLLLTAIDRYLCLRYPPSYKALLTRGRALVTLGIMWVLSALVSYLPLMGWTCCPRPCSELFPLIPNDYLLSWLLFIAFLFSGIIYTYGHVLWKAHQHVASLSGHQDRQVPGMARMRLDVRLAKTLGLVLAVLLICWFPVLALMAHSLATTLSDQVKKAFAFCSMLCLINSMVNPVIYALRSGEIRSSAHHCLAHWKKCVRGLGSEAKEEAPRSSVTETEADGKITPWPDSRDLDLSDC
# T6 sequence (P14416 whole entry): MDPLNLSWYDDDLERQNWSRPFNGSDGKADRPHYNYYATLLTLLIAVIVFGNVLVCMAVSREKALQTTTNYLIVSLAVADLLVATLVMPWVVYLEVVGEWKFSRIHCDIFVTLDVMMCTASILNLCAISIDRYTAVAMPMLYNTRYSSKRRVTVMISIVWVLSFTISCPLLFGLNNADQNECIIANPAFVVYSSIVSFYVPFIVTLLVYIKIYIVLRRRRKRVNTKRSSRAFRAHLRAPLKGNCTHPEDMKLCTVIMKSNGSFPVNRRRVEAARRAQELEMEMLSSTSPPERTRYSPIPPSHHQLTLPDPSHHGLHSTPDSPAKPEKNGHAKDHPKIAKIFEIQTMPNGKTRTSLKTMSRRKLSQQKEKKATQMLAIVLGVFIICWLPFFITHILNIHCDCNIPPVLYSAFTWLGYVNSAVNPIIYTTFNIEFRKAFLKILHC
# T3 sequence (P46098 24-478): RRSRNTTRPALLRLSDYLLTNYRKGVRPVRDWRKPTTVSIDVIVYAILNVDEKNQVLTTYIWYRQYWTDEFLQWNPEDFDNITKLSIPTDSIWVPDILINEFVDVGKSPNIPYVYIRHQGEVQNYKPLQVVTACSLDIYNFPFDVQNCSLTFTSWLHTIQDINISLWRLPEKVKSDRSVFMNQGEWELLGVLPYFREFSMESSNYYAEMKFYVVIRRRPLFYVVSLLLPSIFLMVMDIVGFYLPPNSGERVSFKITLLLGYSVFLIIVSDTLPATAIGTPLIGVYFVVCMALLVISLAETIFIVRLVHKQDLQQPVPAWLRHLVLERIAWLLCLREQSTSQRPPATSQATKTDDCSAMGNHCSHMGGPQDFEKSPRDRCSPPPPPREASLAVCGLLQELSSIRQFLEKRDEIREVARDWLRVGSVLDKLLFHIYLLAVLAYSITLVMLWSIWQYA
# T13 sequence (Q12809 whole entry): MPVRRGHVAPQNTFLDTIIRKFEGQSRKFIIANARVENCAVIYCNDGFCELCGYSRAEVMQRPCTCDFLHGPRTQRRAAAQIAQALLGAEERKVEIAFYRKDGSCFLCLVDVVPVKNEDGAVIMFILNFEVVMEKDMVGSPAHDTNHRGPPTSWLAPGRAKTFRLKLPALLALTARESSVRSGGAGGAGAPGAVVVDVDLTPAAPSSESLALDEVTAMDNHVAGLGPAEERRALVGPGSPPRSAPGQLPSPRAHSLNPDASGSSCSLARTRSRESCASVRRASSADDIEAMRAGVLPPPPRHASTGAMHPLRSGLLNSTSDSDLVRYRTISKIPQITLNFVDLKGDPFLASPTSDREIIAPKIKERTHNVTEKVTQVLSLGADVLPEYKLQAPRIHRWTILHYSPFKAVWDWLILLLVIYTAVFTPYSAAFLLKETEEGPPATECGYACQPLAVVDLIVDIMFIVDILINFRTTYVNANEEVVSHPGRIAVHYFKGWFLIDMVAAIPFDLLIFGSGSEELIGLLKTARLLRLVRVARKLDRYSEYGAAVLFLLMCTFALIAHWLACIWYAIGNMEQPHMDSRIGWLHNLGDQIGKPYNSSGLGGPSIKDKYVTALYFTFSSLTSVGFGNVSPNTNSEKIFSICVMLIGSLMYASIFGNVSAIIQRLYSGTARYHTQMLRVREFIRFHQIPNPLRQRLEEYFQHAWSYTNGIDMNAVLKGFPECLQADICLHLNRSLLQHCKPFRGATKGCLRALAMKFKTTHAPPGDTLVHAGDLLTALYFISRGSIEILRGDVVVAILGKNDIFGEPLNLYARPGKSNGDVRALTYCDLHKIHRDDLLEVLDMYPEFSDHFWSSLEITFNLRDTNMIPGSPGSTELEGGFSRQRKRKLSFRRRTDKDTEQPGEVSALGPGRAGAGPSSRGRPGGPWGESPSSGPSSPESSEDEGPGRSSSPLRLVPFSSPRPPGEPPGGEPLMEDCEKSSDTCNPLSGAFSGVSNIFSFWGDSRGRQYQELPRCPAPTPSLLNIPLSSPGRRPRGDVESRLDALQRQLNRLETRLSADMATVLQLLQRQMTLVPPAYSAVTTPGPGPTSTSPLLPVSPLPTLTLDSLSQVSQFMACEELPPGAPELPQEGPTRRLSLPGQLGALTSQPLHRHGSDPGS
# T1 sequence (P41595 whole entry): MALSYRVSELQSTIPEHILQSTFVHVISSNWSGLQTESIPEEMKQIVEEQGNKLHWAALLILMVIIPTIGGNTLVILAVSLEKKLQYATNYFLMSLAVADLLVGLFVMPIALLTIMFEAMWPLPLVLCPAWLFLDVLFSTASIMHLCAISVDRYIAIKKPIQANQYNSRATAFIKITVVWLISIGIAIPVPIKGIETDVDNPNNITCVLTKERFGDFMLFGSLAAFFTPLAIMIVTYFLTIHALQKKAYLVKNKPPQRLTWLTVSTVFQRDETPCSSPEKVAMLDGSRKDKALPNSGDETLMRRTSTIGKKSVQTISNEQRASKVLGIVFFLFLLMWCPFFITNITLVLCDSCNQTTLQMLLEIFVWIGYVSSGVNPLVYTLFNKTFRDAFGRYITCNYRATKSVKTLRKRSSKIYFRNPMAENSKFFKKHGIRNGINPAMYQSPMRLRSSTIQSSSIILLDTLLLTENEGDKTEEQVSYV
compound,measurement,setting,value
"CNc1ccc(NCCc2ccccc2OC)cc1.Cl [KDS12025, N^1-(2-methoxyphenethyl)-N^4-methylbenzene-1,4-diamine hydrochloride salt]",carbon dioxide production (stats entry 2k),"C57BL/6J mice; 0.1mpk, dark",3345
same,energy expenditure (Fig. S8b),"C57BL/6J mice; 0.1mpk, dark",22.37±1.215
same,oxygen consumption (stats entry 2j),"C57BL/6J mice; 0.1mpk, dark",4228
same,respiratory exchange ratio (stats entry 2l),"C57BL/6J mice; 0.1mpk, dark",0.849
same,total drink consumption (Fig. S8d),"C57BL/6J mice; 0.1mpk, dark",0.1272±0.009
same,total food consumption (Fig. S8c),"C57BL/6J mice; 0.1mpk, dark",0.1543±0.018
same,carbon dioxide production (stats entry 2k),"C57BL/6J mice; 0.1mpk, full day",3292
same,energy expenditure (Fig. S8b),"C57BL/6J mice; 0.1mpk, full day",22.21±1.751
same,oxygen consumption (stats entry 2j),"C57BL/6J mice; 0.1mpk, full day",4161
same,respiratory exchange ratio (stats entry 2l),"C57BL/6J mice; 0.1mpk, full day",0.857
same,total drink consumption (Fig. S8d),"C57BL/6J mice; 0.1mpk, full day",0.108±0.005
same,total food consumption (Fig. S8c),"C57BL/6J mice; 0.1mpk, full day",0.126±0.0123
same,carbon dioxide production (stats entry 2k),"C57BL/6J mice; 0.1mpk, light",3065
same,oxygen consumption (stats entry 2j),"C57BL/6J mice; 0.1mpk, light",3923
same,respiratory exchange ratio (stats entry 2l),"C57BL/6J mice; 0.1mpk, light",0.833
same,carbon dioxide production (stats entry 2k),"C57BL/6J mice; 1mpk, dark",3167
same,energy expenditure (Fig. S8b),"C57BL/6J mice; 1mpk, dark",21.29±0.7258
same,oxygen consumption (stats entry 2j),"C57BL/6J mice; 1mpk, dark",4063
same,respiratory exchange ratio (stats entry 2l),"C57BL/6J mice; 1mpk, dark",0.891
same,total drink consumption (Fig. S8d),"C57BL/6J mice; 1mpk, dark",0.1220±0.0208
same,total food consumption (Fig. S8c),"C57BL/6J mice; 1mpk, dark",0.1761±0.0164
same,carbon dioxide production (stats entry 2k),"C57BL/6J mice; 1mpk, full day",3075
same,energy expenditure (Fig. S8b),"C57BL/6J mice; 1mpk, full day",21.26±0.07088
same,oxygen consumption (stats entry 2j),"C57BL/6J mice; 1mpk, full day",3871
same,respiratory exchange ratio (stats entry 2l),"C57BL/6J mice; 1mpk, full day",0.883
same,total drink consumption (Fig. S8d),"C57BL/6J mice; 1mpk, full day",0.0902±0.0248
same,total food consumption (Fig. S8c),"C57BL/6J mice; 1mpk, full day",0.166±0.03508
same,carbon dioxide production (stats entry 2k),"C57BL/6J mice; 1mpk, light",2916
same,energy expenditure (Fig. S8b),"C57BL/6J mice; 1mpk, light",19.95±0.3562
same,oxygen consumption (stats entry 2j),"C57BL/6J mice; 1mpk, light",3584
same,respiratory exchange ratio (stats entry 2l),"C57BL/6J mice; 1mpk, light",0.860
same,total drink consumption (Fig. S8d),"C57BL/6J mice; 1mpk, light",0.0790±0.0149
same,total food consumption (Fig. S8c),"C57BL/6J mice; 1mpk, light",0.1032±0.009
same,carbon dioxide production (stats entry 2k),"C57BL/6J mice; 10mpk, dark",3344
same,energy expenditure (Fig. S8b),"C57BL/6J mice; 10mpk, dark",20.73±0.9735
same,oxygen consumption (stats entry 2j),"C57BL/6J mice; 10mpk, dark",4216
same,respiratory exchange ratio (stats entry 2l),"C57BL/6J mice; 10mpk, dark",0.877
same,total drink consumption (Fig. S8d),"C57BL/6J mice; 10mpk, dark",0.1041±0.0394
same,total food consumption (Fig. S8c),"C57BL/6J mice; 10mpk, dark",0.1572±0.01881
same,carbon dioxide production (stats entry 2k),"C57BL/6J mice; 10mpk, full day",3120
same,energy expenditure (Fig. S8b),"C57BL/6J mice; 10mpk, full day",19.14±0.6082
same,oxygen consumption (stats entry 2j),"C57BL/6J mice; 10mpk, full day",3593
same,respiratory exchange ratio (stats entry 2l),"C57BL/6J mice; 10mpk, full day",0.857
same,total drink consumption (Fig. S8d),"C57BL/6J mice; 10mpk, full day",0.0776±0.01206
same,total food consumption (Fig. S8c),"C57BL/6J mice; 10mpk, full day",0.1288±0.0108
same,carbon dioxide production (stats entry 2k),"C57BL/6J mice; 10mpk, light",2900
same,energy expenditure (Fig. S8b),"C57BL/6J mice; 10mpk, light",18.91±1.057
same,oxygen consumption (stats entry 2j),"C57BL/6J mice; 10mpk, light",3753
same,respiratory exchange ratio (stats entry 2l),"C57BL/6J mice; 10mpk, light",0.831
same,total drink consumption (Fig. S8d),"C57BL/6J mice; 10mpk, light",0.05856±0.0075
same,total food consumption (Fig. S8c),"C57BL/6J mice; 10mpk, light",0.09464±0.0095
same,activity,[1],63.9%
same,activity,[2],76.4%
same,activity,[3],91.4% and 100%
same,activity,[4]; mean,114%
same,activity,[4],115% and 114%
same,activity,[5]; mean,99.5%
same,activity,[5],102% and 96.6%
same,activity,[6]; mean,84.6%
same,activity,[6],78.4% and 90.8%
same,activity,[7]; mean,98%
same,activity,[7],101% and 95.5%
same,activity,[8]; mean,84%
same,activity,[8],74.8% and 93.2%
same,activity,[9]; mean,96.5%
same,activity,[9],85.3% and 108%
same,activity,[10],91.8%
same,activity,[11],85.5%
same,activity,[12],94.7%
same,activity,[13],105%
same,activity,[14]; mean,86.1%
same,activity,[14],86.9% and 85.4%
same,activity,[15]; mean,107%
same,activity,[15],102% and 111%
same,activity,[16],96.8% and 100%
same,activity at 1 µM,hERG potassium channel,70.3%
